Results taken from patent US12625142B2, “Assay for measuring binding affinity for cardiolipin of biologically active compounds” (Latvian Institute of Organic Synthesis, priority 2020, dated 2026).
Where a name gives a salt, the structure may show the parent alone.

Assay: competition binding assay for cardiolipin with fluorescent probe I and CL-DOPC liposomes (25:75 mol %)
Settings: for EC50: 20 mM HEPES buffer, 2.5 μM CL, 5 μM I, means ± S.D. from 3 independent experiments; for relative binding affinity for CL within the studied set (in words): comparison of EC50 values; for EC50 range (in words): pH 7.4 and 6.8; for effect of pH change on interaction with CL: pH 7.4 versus 6.8
Protocol: Lipid vesicles may be composed of CL and a helper phospholipid (preferentially a phosphatidylcholine) or may have a more complex composition with several phospholipids, provided that the formulation is stable in the used medium. […] [18]
Final concentration of the fluorescent probe I may range from 0.2 μM to 25 μM. Optimal incubation temperature is 37° C. because it represents physiological temperature and allows shortening of the incubation time.
A fluorimeter is required that is capable of scanning emission intensity at a desired wavelength, as well as a plate shaker-thermostat. Assay is carried out in 96-well microplates for fluorescence-based assays. […]
Also place a triplicate of CL containing lipid vesicles without a ligand (vehicle); • 3. Place the 96-well microplate in a plate shaker-thermostat for 10 min (500 RPM, 37° C.). • 4. Add appropriate amount of I stock solution (I final concentration 5 μM) to the wells, including wells containing vehicle, and mix gently with a micro pipette by sucking the solution gently up and down (approximately 5 times); • 5. Incubate for 15 min in a plate shaker-thermostat (500 RPM, 37° C.); • 6. Measure fluorescence intensity at an excitation and emission wavelength of 497 and 529 nm, respectively; • 7. […] Plot the normalized fluorescence intensity against the concentration of the ligand on a logarithmic scale; • 9. Fit the titration curve with a suitable fitting model to calculate EC50 values.

Molecule | EC50 (pH = 7.4) | EC50 (pH = 6.8) | also measured
Cl.N [Example 2, Ammonium chloride] | 31853 ± 2.3 µM |  | fold lower affinity for CL than Ca^2+ ions (pH 7.4, 20 mM HEPES, FIG. 1B): 23 fold
[Ca+2].[Cl-].[Cl-] [Example 3, Calcium chloride] | 1334 ± 10.1 µM | 1290 ± 130 µM | lower EC50 than Mg^2+ (pH 7.4, 20 mM HEPES, FIG. 1B): ≈ 30%
[Cl-].[Cl-].[Mg+2] [Example 4, Magnesium chloride] | 1930 ± 20.5 µM |  | 
COc1cccc2c1C(=O)c1c(O)c3c(c(O)c1C2=O)C[C@@](O)(C(=O)CO)C[C@@H]3O[C@H]1C[C@H](N)[C@@H](O)[C@H](C)O1 [Example 5, (8S,10S)-10-(((2R,4S,5R,6S)-4-amino-5-hydroxy-6-methyltetrahydro-2H-pyran-2-yl)oxy)-6,8,11-trihydroxy-8-(2-hydroxyacetyl)-1-methoxy-7,8,9,10-tetrahydrotetracene-5,12-dione hydrochloride] | 6.94 ± 0.9 µM | 5.86 ± 0.25 µM | 
COc1cccc2c1C(=O)c1c(O)c3c(c(O)c1C2=O)C[C@@](O)(C(C)=O)C[C@@H]3O[C@H]1C[C@H](N)[C@H](O)[C@H](C)O1 [Example 6, (8S,10S)-8-acetyl-10-(((2R,4S,5S,6S)-4-amino-5-hydroxy-6-methyltetrahydro-2H-pyran-2-yl)oxy)-6,8,11-trihydroxy-1-methoxy-7,8,9,10-tetrahydrotetracene-5,12-dione hydrochloride] | 4.35 ± 1.25 µM |  | 
[H]/N=C(/N)N[C@H]1[C@H](O)[C@@H](O)[C@H](O[C@@H]2O[C@@H](C)[C@](O)(C=O)[C@H]2O[C@@H]2O[C@@H](CO)[C@H](O)[C@@H](O)[C@@H]2NC)[C@@H](N/C(N)=N\[H])[C@@H]1O [Example 10, 2-[(1R,2R,3S,4R,5R,6S)-3-(diaminomethyldeneamino)-4-[(2R,3R,4R,5S)-3-[(2S,3S,4S,5R,6S)-4,5-dihydroxy-6-(hydroxymethyl)-3-(methylamino)oxan-2-yl]oxy-4-formyl-4-hydroxy-5-methyloxolan-2-yl]oxy-2,5,6-trihydroxycyclohexyl]guanidine] | 9.82 ± 1.76 µM |  | relative binding affinity for CL within the studied set (in words) (20 mM HEPES, listed as streptomycin): lowest affinity for CL
NC[C@H]1O[C@H](O[C@H]2[C@H](O)[C@@H](O[C@H]3O[C@H](CO)[C@@H](O)[C@H](N)[C@H]3O)[C@H](N)C[C@@H]2N)[C@H](N)C[C@@H]1O [Example 12, (2S,3R,4S,5S,6R)-4-amino-2-{[(1S,2S,3R,4S,6R)-4,6-diamino-3-{[(2R,3R,5S,6R)-3-amino-6-(aminomethyl)-5-hydroxyoxan-2-yl]oxy}-2-hydroxycyclohexyl]oxy}-6-(hydroxymethyl)oxane-3,5-diol] | 4.37 ± 0.32 µM |  | 
CCCCCCCCC[P+](c1ccccc1)(c1ccccc1)c1ccccc1.[Br-] [Example 13, Nonyltriphenylphosphonium bromide] | 19.8 ± 0.75 µM | 36.6 ± 2.93 µM | EC50 range (in words) (20 mM HEPES): micromolar range; relative binding affinity for CL within the studied set (in words) (20 mM HEPES): lower affinities than studied aminoglycosides or anthracyclines; affinity for CL higher than that of dodecyltrimethylammonium chloride (pH 7.4, 20 mM HEPES, FIG. 2A): ≈ 30%; effect of pH change on interaction with CL: affected by changes of pH
CCCCCCCCCCCC[N+](C)(C)C.[Cl-] [Example 14, Dodecyltrimethylammonium chloride] | 30.7 ± 2.75 µM | 74.4 ± 8.47 µM | EC50 range (in words) (20 mM HEPES): micromolar range; relative binding affinity for CL within the studied set (in words) (20 mM HEPES): lower affinities than studied aminoglycosides or anthracyclines; effect of pH change on interaction with CL: affected by changes of pH
(2R,3R,4S,5S,6S)-5-amino (((2R,3S,4R,4aR,6S,7R,8aS)-7-amino-6-(((1R,2R,3S,4R,6S)-4,6-diamino-2,3-dihydroxycyclohexyl)oxy)-4-hydroxy-3-(methylamino)octahydropyrano[3,2-b]pyran-2-yl)oxy)-6-(hydroxymethyl)tetrahydro-2H-pyran-3,4-diol sulfate [Example 9] | 3.34 ± 0.95 µM |  | 
Cytochrome c [Example 1] | 0.32 ± 0.06 µM | 0.28 ± 0.02 µM | relative binding affinity for CL within the studied set (in words) (20 mM HEPES): the highest binding affinity for CL
